# Measured values: patent US20190241660A1, “IMMUNE-STIMULATING PEPTIDES AND CHECKPOINT INHIBITORS, AND USES THEREOF FOR TREATING CANCER” (INTENDET SERVICES, LLC, priority 2017, published 2019)
# Assays:
# [1] = test system: immune cell profile in tumors; assay: Immune profiles of tumors by FACS analysis in lymphoma bearing mice; format: in vivo, C57BL/6 mice
# Text: (§1) In this study the immune cell profile in tumors and blood in lymphoma bearing mice was compared for a 3 times weekly dose of INT-151 and anti-CTLA-4 alone to the combination of 3 times weekly INT-151 plus anti-CTLA-4.
# (§2) On day 17 after treatment began, when tumors reached a volume of 500-600 mm^3, mice were sacrificed and tumors and blood was collected for Fluorescent Activated Cell Sorting (FACS) analysis to determine the following immune cell types as listed in the table below:
# (§3) Animals were to be monitored individually. Randomization into treatment groups was conducted when tumors reached an average of 43 mm^3 (n=6). Mice were euthanized after 17 days to collect tumors and blood for FACS analysis.
# [2] = test system: E.G7-OVA murine lymphoma cells; assay: Tumor volume in immune cell profile study of established tumors (E.G7-OVA-e217 protocol); format: in vivo, C57BL/6 mice; conditions: at study end; INT-151 100 μg/animal 3 times a week; anti-CTLA-4 100 μg then 50 μg ×2; n=6; FIG. 6
# Text: as §1, §2, §3
# [3] = test system: immune cell profile in peripheral blood; assay: Immune profiles of peripheral blood by FACS analysis in lymphoma bearing mice; format: in vivo, C57BL/6 mice
# Text: as §1, §2, §3
# [4] = test system: E.G7-OVA murine lymphoma cells; assay: Pilot dose response study, INT-151 once vs 3× weekly alone and with anti-CTLA-4 (E.G7-OVA-e215 protocol)
# [5] = test system: E.G7-OVA murine lymphoma cells; assay: E.G7-OVA syngeneic mouse lymphoma model, INT-151 with anti-CTLA-4 (E.G7-OVA-e214 protocol)
# T cell = conditions: in the presence of tetanus toxoid or concanavalin A; Sinha 1988; cited from earlier work
# [6] = INT-151 100 μg/animal 1× weekly (alone or with anti-CTLA-4 days 6, 9, 12), only animals with tumor take
# [7] = INT-151 100 μg/animal 3× weekly (alone or with anti-CTLA-4), only animals with tumor take
# [8] = INT-151 in combination with anti-CTLA-4
compound,measurement,setting,value
"N[C@@H](Cc1ccc(O)cc1)C(=O)NCC(=O)O [INT-151, tyrosyl-glycine]",CD4+T cells,"[1]; compared to controls, FIG. 7",unchanged
same,CD8+ T cell population,"[1]; compared to controls, FIG. 7",did not affect
same,M1 macrophage population,"[1]; compared to controls, FIG. 7",decreased
same,M2 macrophage population,"[1]; compared to controls, FIG. 7",increasing
same,granulocytic myeloid suppressor cells,"[1]; compared to controls, FIG. 7",unchanged
same,regulatory T cells,"[1]; compared to controls, FIG. 7",did not affect
same,ratio of CD8+T/Treg,[1]; control group 3.2,2.5
same,Median tumor volumes,[2],831.0 mm^3
same,CD4+ T cell population,"[3]; compared to controls, FIG. 8",did not affect
same,CD8+ T cell population,"[3]; compared to controls, FIG. 8",did not affect
same,M1 macrophage population,"[3]; compared to controls, FIG. 8",unchanged
same,M2 macrophage population,"[3]; compared to controls, FIG. 8",elevated
same,Monocytic myeloid suppressor cells,"[3]; compared to controls, FIG. 8",not affected
same,granulocytic MDSCs,"[3]; compared to controls, FIG. 8",reduced
same,regulatory T cells,"[3]; compared to controls, FIG. 8",did not affect
same,total macrophage population,"[3]; compared to controls, FIG. 8",increased
same,ratio of CD8+T/Treg,[3]; controls 8.4,6.4
same,% Alive on day 26,[4]; [6],100%
same,% Alive on day 29,[4]; [6],100%
same,% Alive on day 33,[4]; [6],60%
same,% Alive on day 36,[4]; [6],20%
same,% Alive on day 43,[4]; [6],0%
same,% Alive on day 26,[4]; [7],100%
same,% Alive on day 29,[4]; [7],100%
same,% Alive on day 33,[4]; [7],80%
same,% Alive on day 36,[4]; [7],40%
same,% Alive on day 40,[4]; [7],30%
same,% Alive on day 43,[4]; [7],0%
same,clinical improvement (median tumor volume and survival),"[4]; INT-151 3 times weekly, alone or with anti-CTLA-4, FIG. 5",greater clinical improvement
same,synergy with anti-CTLA-4 on survival,[4]; [8],synergizes
same,tolerability,[4]; each treatment group,well tolerated
same,synergy with anti-CTLA-4 on survival,[5]; [8],acts synergistically
same,overall survival,"[5]; compared to control, FIG. 3, FIG. 4","not INT-151, demonstrated improved overall survival"
same,body-weight (clinical improvement),"[5]; compared to untreated Group 1, FIG. 2",slight positive clinical improvement
same,median tumor volume growth / tumor size,"[5]; compared to untreated Group 1, INT-151 100 μg/animal i.p. weekly from Day 6, anti-CTLA-4 Days 6, 9, 12, FIG. 1",slight positive clinical improvement
"CC(C)CC(NC(=O)C(Cc1ccccc1)NC(=O)CNC(=O)CNC(=O)C(N)Cc1ccc(O)cc1)C(=O)O (stereo not shown) [leu-enkephalin, tyr-gly-gly-phe-leu]",T cell proliferation,T cell,elicit T cell proliferation
tyr-gly-gly-phe-met [met-enkephalin],T cell proliferation,T cell,elicit T cell proliferation
